Data reported in patent US20250277213A1, “COMPOSITIONS AND METHODS RELATED TO MULTIPLE MYELOMA-ASSOCIATED LONG NONCODING RNAS” (Washington University, priority 2024, published 2025).
“Also recorded” adds a separate entry of the source.

How the values were obtained:
Format in all cases: cell-based
[1] = test system: LINC01432; test: LINC01432 expression in U266B1 cells treated with standard drugs; settings: FIG. 8B, 8C
[2] = test system: LINC01432 binding to CELF2; test: iCLIP RT-qPCR of CELF2 binding to LINC01432 in U266B1 cells treated with melphalan; settings: high-dose melphalan for 48 hours, FIG. 16B
Description: Cells were seeded at a density of twenty million cells/150 mm dish. The next day, cells were washed with cold PBS and media volumes were adjusted to 10 ml/dish. Dishes were then uncovered and irradiated with 150 mJ/cm^2 of […] (254 nm) in a crosslinker device (Stratalinker). Cells were then harvested and centrifuged at 2000 RPM at 4° C. for 5 minutes. Cell pellets were resuspended in 1 ml of NP-40 lysis buffer (20 mM Tris-HCl at pH 7.5, 100 mM KCl, 5 mM MgCl2, and 0.5% NP-40) with 1 μl protease inhibitor and 1 mM DTT, incubated on ice for ten minutes, and then centrifuged at 10,000 RPM for 15 minutes at 4° C. Supernatants were collected, 1 U/μl RNase T1 was added, then cell lysates were incubated at 22° C. for 30 minutes. Protein G Beads were resuspended in 100 μls NT2 buffer (50 mM Tris-HCl at pH 7.5, 150 mM NaCl,1 mM MgCl2, 0.05% NP-40) with 5 μg of respective antibodies, then rotated for one hour at room temperature. Cell lysates were added to the beads and incubated for three hours at 4° C., the beads were washed with NT2 buffer, and then incubated with 20 units RNAse-free DNase I for 15 minutes at 37° C. in a thermomixer, shaking slowly. […] (141 μls NP-40 lysis buffer, 0.1% SDS, 0.5 mg/ml Proteinase K) was then added and incubated for 15 minutes at 55° C. in a thermomixer, shaking at maximum speed. […]

[3] = test system: LINC01432; test: mFISH of LINC01432 in U266B1 cells treated with high-dose melphalan
Description: RNAScope was performed as previously described, with some modifications using RNAscope 2.5 HD Reagent Kit Red assay combined with Immunohistochemistry (Advanced Cell Diagnostics [ACD], Catalog #323180 and #322372) according to manufacturer's instructions. Briefly, bone marrow aspirates or isolated tumors were applied to slides were baked in a dry air oven for one hour at 60° C., deparaffinized (Xylene for five minutes twice, followed by 100% ethanol for two minutes twice), hydrogen peroxide was applied for 10 minutes at room temperature, and co-detection target retrieval was performed using Steamer (BELLA) for twenty minutes and PBS-T washing. Slides were then incubated overnight with CUGBP2 (CELF2) antibody (Protein Tech, Cat #12921-1-AP) in a HybEz Slide Rack with damp humidifying paper and incubated overnight at 4° C. The next day, slides were washed in PBS-T then post-primary fixation was performed by submerging slides in 10% NBF for 30 minutes at room temperature. […]
Analysis of mFISH and IHC images was performed by comparing expression of LINC01432 or CELF2 between different cell lines or tissues and simultaneously verifying their cellular localization or intensity of expression. We first visualized our target RNA molecules using an EVOS M5000 imaging system and quantified targets with QuPath Software v0.5.1 to obtain cell-count per region and number of spots per cell data. […]

[4] = test system: MM cell lines; test: Apoptosis after LNA ASO-mediated CELF2 knockdown; settings: MM cell lines (U266B1 in FIG. 12B); vs control LNA ASO
[5] = test system: RPMI 8226 cells
Description: (§1) Locked nucleic acid GapmeR antisense oligonucleotides (LNA ASOs) targeting LINC01432 (Qiagen, cat #3653410) and CELF2 (Qiagen, cat #339511), and negative control LNA ASOs (Qiagen, cat #148759394), were designed using the Qiagen Antisense LNA GapmeR Custom Builder (https://www.qiagen.com), sequences are listed in Table 2. RPMI 8226 cells were seeded at a density of 500,000 cells/well in 6-well plates, transfected with respective ASOs at 100 nM concentration using Lipofectamine 2000, and incubated for 48-72 hours. Cells were harvested and target knockdown was validated via RT-qPCR.
(§2) We used the ApoTox-Glo Triplex Assay (Promega, Madison, WI) to simultaneously measure viability, cytotoxicity, and apoptosis in the same sample. We seeded 20,000 cells/well of Control CRISPR/Cas9, LINC01432 knockdown CRISPR/Cas9, empty vector, LINC01432 overexpression, or wild-type RPMI 8226 cells in triplicate into a 96-well plate at 100 uls complete media per well. We began by first adding 20 ul of Viability/Cytoxicity reagent to all wells, and briefly mixing for ˜30 seconds. Plates were then placed in a 37° C. incubator for one hour. Next, we measured the intensity of fluorescence (relative fluorescence units) using 400Ex/505Em (viability) and 485Ex/520Em (Cytotoxicity) in Varioskan LUX microplate reader. To measure apoptosis, we next add 100 ul Caspase-Glo 3/7 reagent to the same wells and briefly mixed by orbital shaking ˜20 seconds, followed by incubation at room temp for 30 minutes. Luminescence (relative luminescence units) was then measured using Varioskan LUX microplate reader to detect caspase activation. A similar protocol was used to detect the proliferation of cells treated with Melphalan at increasing concentrations (Sigma Aldrich, St. Louis, MO, cat #M2011) using 10 uls Invitrogen alamarBlue HS Cell Viability Reagent in 90 μls of 25,000 cells with media (Waltham, MA, cat #A50100). Fluorescence was then measured using 560Ex/570Em in a microplate reader.

[6] = test system: RPMI 8226 cells; test: Annexin V and propidium iodide flow cytometry, LNA ASO followed by Melphalan
Description: We measured apoptosis by isolating cells and assessing via flow cytometry using BD Horizon V450 AnnexinV (BD Biosciences, Franklin Lakes, NJ). We seeded 500,000 cells/well in a 6-well plate for 24 hours. Cells were then harvested, and the usual protocol was followed, per manufactures instructions. Briefly, cells were washed twice with PBS, then incubated V450 AnnexinV and Propidium Iodide (ThermoFisher) for fifteen minutes at room temperature in the dark. Apoptosis and DNA content was assessed on a flow cytometer machine (Novios, Becton Dickinson) by the Flow Cytometry Core of Siteman Cancer Center, Washington University in St. Louis. We collected a minimum of 50,000 cells per sample in triplicate. FlowJo Version10 (Becton Dickinson) was used to analyze data.

[7] = test system: LINC01432; test: RT-qPCR of LINC01432 expression after LNA ASO transfection; settings: RPMI 8226 cells; 100 nM ASO, 48-72 hours; vs control LNA ASO; FIG. 5A
Description: as §1

[8] = test system: RPMI 8226 cells; test: Proliferation (alamarBlue, IC50 assay) of cells treated with LNA ASO and Melphalan
Description: as §2

Question: `N[C@@H](Cc1ccc(N(CCCl)CCCl)cc1)C(=O)O` [melphalan, Melphalan] was tested. Which LINC01432 expression [1] did it give?
Answer: Its LINC01432 expression is “increases LINC01432 expression”.

Question: And the “decrease in binding enrichment compared to control cells, Tiling Primer 1” value [2]?
Answer: The value was over 2 Fold Change.

Question: And the “decrease in binding enrichment compared to control cells, Tiling Primer 5” value [2]?
Answer: The value was over 2 Fold Change.

Question: What about the “LINC01432 expression by mFISH” value ([3]; high-dose melphalan for 24 hours, p=0.001) of the same compound?
Answer: Its value is “High expression”.

Question: What about the “LINC01432 expression by mFISH” value ([3]; high-dose melphalan for 48 hours, p=0.0012) of the same compound?
Answer: Its value is “High expression”.

Question: For “CELF2 LNA ASO: LNA GapmeR antisense oligonucleotide targeting CELF2, GATGAACTCGTTACGC (SEQ_ID_NO: 33) (antisense GAUGAACUCGUUACGC; LNA gapmer from Qiagen, LNA pattern not given here)”, which apoptosis [4] is on record?
Answer: The apoptosis was “increased apoptosis”.

Question: With “LINC01432-targeted LNA ASO: LNA GapmeR antisense oligonucleotide targeting LINC01432, TGGAGATTTTGCCATT (SEQ_ID_NO: 31) (antisense UGGAGAUUUUGCCAUU; LNA gapmer, pattern not given here)” as the compound, how does the cytotoxicity [5] read?
Answer: The cytotoxicity was “significant decreases”.

Question: And the viability ([5]; RPMI 8226 cells, vs control LNA ASO, p=0.001, FIG. 5B)?
Answer: The viability was “significant decreases”.

Question: What about the apoptosis ([5]; RPMI 8226 cells, vs control LNA ASO, p=0.017, FIG. 5B) of the same compound?
Answer: The apoptosis was “significant increase”.

Question: What about the “apoptosis on co-treatment with melphalan” value ([6]; MM cell lines in vitro, co-treatment with high-dose melphalan) of the same compound?
Answer: The value was “increased apoptosis”.

Question: And the “proportion of cells in early apoptosis and necrosis” value ([6]; RPMI 8226 cells, LNA ASO followed by 24 hours of 30 μM Melphalan, vs control LNA ASO, FIG. 5C)?
Answer: The value was “increased”.

Question: What about the LINC01432 expression [7] of the same compound?
Answer: Its LINC01432 expression is “confirmed knockdown of LINC01432 expression”.

Question: What about the sensitivity to melphalan ([8]; MM cell lines in vitro, with high-dose melphalan) of the same compound?
Answer: Its sensitivity to melphalan is “induce sensitivity to melphalan; also recorded: enhanced sensitivity to melphalan”.

Question: What about the proliferation ([8]; RPMI 8226 cells, LNA ASO plus Melphalan, vs control LNA ASO, FIG. 5D) of the same compound?
Answer: The proliferation was “decreased proliferation”.
